# Measured values: ChEMBL document CHEMBL1201862, “PubChem BioAssay data set” (2004)
# The source made the active and inactive calls.
# How the values were obtained:
# [1] = IGROV1 cell killing – plate reader, dry powder samples, PAX8 inhibitor project, dose response (AID 743043); assay type: functional, cell-based; settings: IGROV-1
# [2] = OVCAR-3 cell viability loss – plate reader, dry powder samples, PAX8 inhibitor project, dose response (AID 743044); assay type: functional, cell-based
# Paired box protein Pax-8 = Paired box protein Pax-8 (Homo sapiens, UniProt Q06710); test: PAX8 transcriptional activity inhibition in RMG-I – RMG-I cells, luciferase, cherry-pick, dose response (AID 687027); assay type: functional, cell-based;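 also: luciferase reporter driven by Pax8 target thyroperoxidase promoter measured by SteadyGlo luminescence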
# Chain of Paired box protein Pax-8 (Q06710 whole entry): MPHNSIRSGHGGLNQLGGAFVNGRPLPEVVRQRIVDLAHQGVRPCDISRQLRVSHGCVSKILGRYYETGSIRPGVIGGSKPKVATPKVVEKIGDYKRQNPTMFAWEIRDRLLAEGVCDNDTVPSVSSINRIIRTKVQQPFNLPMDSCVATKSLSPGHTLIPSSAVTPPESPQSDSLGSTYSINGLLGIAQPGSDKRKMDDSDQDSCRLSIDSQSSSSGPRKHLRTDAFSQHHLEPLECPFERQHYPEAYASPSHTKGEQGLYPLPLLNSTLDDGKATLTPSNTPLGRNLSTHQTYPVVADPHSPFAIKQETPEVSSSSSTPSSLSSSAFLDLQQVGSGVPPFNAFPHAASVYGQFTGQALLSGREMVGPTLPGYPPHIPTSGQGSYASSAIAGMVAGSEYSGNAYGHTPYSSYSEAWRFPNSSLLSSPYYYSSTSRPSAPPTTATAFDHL
# cells [3] = assay type: functional, cell-based
# cells [4] = assay type: functional, cell-based; remark: listed apart in the source
# [5] = biological target: T1, Trace amine-associated receptor 1 (Homo sapiens, UniProt Q96RJ0); test: Fluorescence-based cell-based high throughput dose response assay to identify agonists of the human trace amine associated receptor 1 (TAAR1).; assay type: functional
# T1 sequence (Q96RJ0 whole entry): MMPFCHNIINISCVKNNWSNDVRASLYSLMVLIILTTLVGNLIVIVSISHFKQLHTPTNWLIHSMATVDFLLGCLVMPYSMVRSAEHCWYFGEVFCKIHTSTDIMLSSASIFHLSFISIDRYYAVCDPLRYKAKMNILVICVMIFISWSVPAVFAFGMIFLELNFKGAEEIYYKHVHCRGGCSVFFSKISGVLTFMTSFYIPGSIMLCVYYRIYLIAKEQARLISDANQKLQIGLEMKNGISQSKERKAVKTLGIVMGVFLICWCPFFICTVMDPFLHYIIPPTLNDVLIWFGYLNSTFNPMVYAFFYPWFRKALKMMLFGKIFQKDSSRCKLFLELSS
# [6] = biological target: T1, Trace amine-associated receptor 1; test: Counterscreen for agonists of the human trace amine associated receptor 1 (hTAAR1): Fluorescence-based cell-based high throughput dose response assay to identify hTAAR1 agonist that also desensitize TAAR1 receptor response.; assay type: functional
# [7] = biological target: Peroxisome proliferator-activated receptor gamma/Nuclear receptor coactivator 2 (Homo sapiens, UniProt P37231); assay type: functional;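 also: agonist potency for raising coactivator recruitment to the receptor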
# [8] = biological target: Peroxisome proliferator-activated receptor gamma/Nuclear receptor coactivator 1 (Homo sapiens, UniProt P37231); assay type: functional;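 also: agonist potency as compounds enhance coactivator SRC-1 recruitment to PPARgamma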
# [9] = biological target: Peroxisome proliferator-activated receptor gamma/Nuclear receptor coactivator 3 (Homo sapiens, UniProt P37231); assay type: functional;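 also: agonist potency for raising coactivator recruitment to the receptor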
# [10] = biological target: T2, Adenosylmethionine-8-amino-7-oxononanoate aminotransferase (Mycobacterium tuberculosis, UniProt P9WQ81); test: Mycobacterium tuberculosis BioA enzyme inhibitor Measured in Biochemical System Using Plate Reader - 2163-02_Inhibitor_Dose_CherryPick_Activity.; assay type: functional, Mycobacterium tuberculosis UT205
# T2 sequence (P9WQ81 whole entry): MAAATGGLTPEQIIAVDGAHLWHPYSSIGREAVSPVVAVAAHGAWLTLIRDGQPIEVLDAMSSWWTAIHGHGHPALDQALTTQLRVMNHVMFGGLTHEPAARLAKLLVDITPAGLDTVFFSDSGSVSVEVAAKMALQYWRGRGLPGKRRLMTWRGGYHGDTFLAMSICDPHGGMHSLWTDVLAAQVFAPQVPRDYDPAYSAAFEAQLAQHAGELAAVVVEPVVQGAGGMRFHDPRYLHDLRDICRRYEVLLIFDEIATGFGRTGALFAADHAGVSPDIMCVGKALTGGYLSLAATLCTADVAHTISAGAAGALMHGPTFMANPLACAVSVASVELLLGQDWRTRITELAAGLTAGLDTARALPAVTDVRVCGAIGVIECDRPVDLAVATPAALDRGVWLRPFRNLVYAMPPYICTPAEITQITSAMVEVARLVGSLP
# [11] = activation of miR-122 Renilla sensor silencing – cell-based, Huh7 psiCHECK-miR122, Renilla luciferase, cherry-picked, dose response (AID 651956); assay type: functional;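 also: huh7 hepatoma cells stably carrying a psiCHECK-2 miR-122 sensor plasmid; renilla luciferase signal reporting endogenous miR-122 activity after 48 h compound exposure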
# [12] = HIV-1 Vif–A3G interaction blockers – biochemical, TR-FRET, GST-Vif 1-94, biotin-A3G peptide, dose response retest, primary screen (AID 1117319); assay type: functional;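 also: TR-FRET signal of purified GST-Vif binding a biotinylated A3G peptide; inhibitors lower the FRET signal by blocking Vif and A3G binding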
# [13] = biological target: Voltage-dependent T-type calcium channel subunit alpha-1H (Homo sapiens, UniProt O95180); assay type: functional;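 also: channel activity triggered by adding a high calcium stimulation buffer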
# [14] = biological target: Protein-tyrosine kinase 2-beta (Homo sapiens, UniProt Q14289);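 also: potency of inhibitors of PYK2 kinase phosphorylation of poly-GT substrate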
# Chain of Protein-tyrosine kinase 2-beta (Q14289 whole entry): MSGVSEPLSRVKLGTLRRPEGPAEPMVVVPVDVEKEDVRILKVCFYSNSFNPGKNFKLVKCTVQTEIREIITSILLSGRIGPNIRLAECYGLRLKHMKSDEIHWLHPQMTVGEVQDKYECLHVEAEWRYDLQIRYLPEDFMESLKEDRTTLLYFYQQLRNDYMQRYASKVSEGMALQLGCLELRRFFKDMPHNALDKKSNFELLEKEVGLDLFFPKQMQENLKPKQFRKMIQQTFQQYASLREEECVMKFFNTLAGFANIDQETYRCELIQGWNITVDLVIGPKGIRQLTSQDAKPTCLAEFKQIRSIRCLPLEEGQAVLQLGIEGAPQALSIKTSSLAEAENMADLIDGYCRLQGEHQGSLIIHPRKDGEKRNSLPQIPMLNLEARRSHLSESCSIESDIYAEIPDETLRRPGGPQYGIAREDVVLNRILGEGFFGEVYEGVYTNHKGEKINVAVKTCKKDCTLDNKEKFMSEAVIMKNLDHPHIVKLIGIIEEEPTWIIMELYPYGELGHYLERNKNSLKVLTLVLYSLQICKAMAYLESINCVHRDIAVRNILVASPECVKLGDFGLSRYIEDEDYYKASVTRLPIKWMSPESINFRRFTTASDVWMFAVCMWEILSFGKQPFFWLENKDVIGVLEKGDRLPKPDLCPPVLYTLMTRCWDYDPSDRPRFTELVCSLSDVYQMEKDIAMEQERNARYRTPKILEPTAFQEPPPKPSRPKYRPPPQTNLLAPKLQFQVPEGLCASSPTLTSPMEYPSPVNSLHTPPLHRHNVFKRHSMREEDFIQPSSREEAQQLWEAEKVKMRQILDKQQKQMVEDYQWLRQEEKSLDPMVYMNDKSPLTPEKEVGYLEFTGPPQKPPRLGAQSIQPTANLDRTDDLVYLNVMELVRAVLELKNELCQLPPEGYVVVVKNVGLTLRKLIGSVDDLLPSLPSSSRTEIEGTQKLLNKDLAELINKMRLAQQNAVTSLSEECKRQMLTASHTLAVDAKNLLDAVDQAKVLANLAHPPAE
# [15] = intracellular Trypanosoma cruzi inhibitors in host cells – cell-based, plate reader, cherry-pick samples, set 3, dose response (AID 651818); assay type: functional;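 also: compounds incubated with infected cells for about four days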
# Fatty acid synthase [16] = biological target: T3, Fatty acid synthase (Homo sapiens, UniProt P49327); test: inhibition of human FAS-TE enzyme activity – biochemical, endpoint fluorescence intensity, uHTS hits, dose response (AID 624327); assay type: functional;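 also: fluorescence from hydrolysis of an O-methyl fluorescein acyl ester substrate by the enzyme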
# T3 sequence (P49327 whole entry): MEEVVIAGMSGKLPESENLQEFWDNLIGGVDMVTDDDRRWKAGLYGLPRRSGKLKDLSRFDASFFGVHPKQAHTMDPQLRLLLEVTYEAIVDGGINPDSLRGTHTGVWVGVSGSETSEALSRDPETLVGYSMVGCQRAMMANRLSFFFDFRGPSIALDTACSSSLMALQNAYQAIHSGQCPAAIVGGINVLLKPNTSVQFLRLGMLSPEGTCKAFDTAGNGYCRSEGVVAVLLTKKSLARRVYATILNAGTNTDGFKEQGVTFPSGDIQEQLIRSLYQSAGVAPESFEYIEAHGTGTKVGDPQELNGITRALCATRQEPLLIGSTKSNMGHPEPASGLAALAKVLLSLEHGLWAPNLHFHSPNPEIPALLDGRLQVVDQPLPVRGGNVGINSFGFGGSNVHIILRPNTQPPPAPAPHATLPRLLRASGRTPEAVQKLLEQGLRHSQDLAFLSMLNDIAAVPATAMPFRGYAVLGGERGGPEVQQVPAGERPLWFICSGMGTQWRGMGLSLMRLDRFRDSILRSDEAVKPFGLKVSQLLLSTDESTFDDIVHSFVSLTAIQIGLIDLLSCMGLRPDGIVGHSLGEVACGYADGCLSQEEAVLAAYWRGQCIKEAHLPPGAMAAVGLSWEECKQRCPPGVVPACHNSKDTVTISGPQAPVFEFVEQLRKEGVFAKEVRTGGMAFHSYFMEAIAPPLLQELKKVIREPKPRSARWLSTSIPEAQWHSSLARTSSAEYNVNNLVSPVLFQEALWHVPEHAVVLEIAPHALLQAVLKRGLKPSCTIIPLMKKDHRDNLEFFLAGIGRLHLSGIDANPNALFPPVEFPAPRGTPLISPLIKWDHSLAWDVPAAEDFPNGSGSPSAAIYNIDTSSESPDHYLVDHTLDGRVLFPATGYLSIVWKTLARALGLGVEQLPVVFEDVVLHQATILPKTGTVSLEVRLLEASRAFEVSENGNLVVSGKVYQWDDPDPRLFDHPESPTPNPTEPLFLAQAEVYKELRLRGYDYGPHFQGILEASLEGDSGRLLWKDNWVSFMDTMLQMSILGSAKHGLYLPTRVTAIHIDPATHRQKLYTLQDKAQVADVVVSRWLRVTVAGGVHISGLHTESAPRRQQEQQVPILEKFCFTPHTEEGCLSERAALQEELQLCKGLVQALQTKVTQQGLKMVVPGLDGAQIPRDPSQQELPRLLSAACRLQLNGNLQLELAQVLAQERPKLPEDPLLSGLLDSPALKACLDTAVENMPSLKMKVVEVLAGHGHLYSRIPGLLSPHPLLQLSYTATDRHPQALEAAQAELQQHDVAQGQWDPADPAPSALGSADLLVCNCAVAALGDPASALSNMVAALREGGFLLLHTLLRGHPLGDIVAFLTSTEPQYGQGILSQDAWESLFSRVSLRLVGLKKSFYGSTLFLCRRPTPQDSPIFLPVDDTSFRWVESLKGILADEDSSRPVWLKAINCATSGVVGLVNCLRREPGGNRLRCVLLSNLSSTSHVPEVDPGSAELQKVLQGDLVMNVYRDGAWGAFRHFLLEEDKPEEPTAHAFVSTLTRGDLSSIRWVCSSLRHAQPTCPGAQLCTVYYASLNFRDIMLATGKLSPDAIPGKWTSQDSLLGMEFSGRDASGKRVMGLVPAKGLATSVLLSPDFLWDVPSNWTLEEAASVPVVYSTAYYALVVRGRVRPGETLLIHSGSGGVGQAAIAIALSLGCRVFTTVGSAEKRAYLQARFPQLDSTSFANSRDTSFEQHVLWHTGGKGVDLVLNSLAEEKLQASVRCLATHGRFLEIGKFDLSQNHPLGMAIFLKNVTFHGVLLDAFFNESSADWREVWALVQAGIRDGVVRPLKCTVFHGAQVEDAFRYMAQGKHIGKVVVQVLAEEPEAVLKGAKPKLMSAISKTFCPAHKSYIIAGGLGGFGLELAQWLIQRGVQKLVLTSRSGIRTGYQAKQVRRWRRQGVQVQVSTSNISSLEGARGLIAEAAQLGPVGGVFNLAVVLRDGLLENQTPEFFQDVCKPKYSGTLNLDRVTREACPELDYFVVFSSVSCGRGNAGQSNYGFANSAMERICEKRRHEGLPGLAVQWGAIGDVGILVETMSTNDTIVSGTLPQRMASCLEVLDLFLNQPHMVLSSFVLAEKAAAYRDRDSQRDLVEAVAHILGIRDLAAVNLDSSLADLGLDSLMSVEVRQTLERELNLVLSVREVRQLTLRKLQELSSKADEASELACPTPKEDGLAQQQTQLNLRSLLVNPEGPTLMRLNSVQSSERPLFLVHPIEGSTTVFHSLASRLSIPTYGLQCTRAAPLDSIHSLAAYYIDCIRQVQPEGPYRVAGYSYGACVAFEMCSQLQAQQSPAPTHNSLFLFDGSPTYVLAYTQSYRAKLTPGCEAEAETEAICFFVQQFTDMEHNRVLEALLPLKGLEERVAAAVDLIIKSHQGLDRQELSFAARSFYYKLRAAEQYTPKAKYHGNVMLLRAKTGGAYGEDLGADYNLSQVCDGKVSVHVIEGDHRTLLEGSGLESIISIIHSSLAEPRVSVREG
# Fatty acid synthase [17] = biological target: T3, Fatty acid synthase; test: inhibition of human FAS-TE enzyme activity – biochemical, kinetic fluorescence intensity, dose response (AID 624326); assay type: functional;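 also: rate of fluorescence rise from hydrolysis of a fluorogenic O-methyl fluorescein ester substrate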
# [18] = biological target: T4, DNA repair and recombination protein RAD54-like (Homo sapiens, UniProt Q92698); test: RAD54 Holliday junction migration blockers – biochemical, fluorescence, cherry-picked samples, dose series, confirmation (AID 651657); assay type: functional
# T4 sequence (Q92698 whole entry): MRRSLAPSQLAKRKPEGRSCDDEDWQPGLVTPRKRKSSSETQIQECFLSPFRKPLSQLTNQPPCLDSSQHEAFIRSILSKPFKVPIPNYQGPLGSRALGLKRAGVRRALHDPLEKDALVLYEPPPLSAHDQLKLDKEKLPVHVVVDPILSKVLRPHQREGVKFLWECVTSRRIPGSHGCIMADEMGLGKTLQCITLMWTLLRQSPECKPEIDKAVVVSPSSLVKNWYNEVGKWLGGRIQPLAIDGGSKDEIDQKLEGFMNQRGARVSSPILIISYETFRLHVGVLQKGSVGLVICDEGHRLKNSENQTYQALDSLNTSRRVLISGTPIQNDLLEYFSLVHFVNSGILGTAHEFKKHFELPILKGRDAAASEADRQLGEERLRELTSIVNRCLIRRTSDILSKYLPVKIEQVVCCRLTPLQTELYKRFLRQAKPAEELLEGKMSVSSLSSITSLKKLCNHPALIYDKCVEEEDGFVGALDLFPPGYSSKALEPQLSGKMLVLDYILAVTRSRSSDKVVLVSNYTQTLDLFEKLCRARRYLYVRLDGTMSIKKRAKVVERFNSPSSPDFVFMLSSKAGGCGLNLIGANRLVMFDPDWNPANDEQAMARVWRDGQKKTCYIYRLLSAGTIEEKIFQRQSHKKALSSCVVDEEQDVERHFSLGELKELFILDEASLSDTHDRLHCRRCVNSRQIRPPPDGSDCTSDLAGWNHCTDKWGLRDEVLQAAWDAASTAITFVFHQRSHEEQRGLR
# [19] = biological target: T5, Long-chain-fatty-acid--AMP ligase FadD28 (Mycobacterium tuberculosis, UniProt P9WQ59); test: Fluorescence polarization aasay to screen for inhibitors that compete for the binding of FadD28 to a bisubstrate Measured in Biochemical System Using Plate Reader - 2147-01_Inhibitor_Dose_CherryPick_Activity.; assay type: functional, Mycobacterium tuberculosis H37Rv
# T5 sequence (P9WQ59 whole entry): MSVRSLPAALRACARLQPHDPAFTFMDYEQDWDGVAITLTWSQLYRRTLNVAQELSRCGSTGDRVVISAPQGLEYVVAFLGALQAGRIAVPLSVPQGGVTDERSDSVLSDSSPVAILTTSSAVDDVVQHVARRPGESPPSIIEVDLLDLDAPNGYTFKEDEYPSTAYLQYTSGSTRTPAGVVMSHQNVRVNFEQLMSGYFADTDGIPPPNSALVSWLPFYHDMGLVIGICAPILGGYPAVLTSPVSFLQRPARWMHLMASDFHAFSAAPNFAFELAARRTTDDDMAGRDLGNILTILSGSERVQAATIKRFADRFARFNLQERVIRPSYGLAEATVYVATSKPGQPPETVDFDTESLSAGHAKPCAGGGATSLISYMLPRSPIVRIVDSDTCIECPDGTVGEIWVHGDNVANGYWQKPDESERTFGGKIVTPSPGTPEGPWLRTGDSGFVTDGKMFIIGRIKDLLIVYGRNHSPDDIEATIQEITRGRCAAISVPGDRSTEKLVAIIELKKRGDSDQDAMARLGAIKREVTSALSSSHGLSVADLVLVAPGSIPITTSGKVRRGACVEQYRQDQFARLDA
# [20] = biological target: T6, Voltage-gated N-type calcium channel alpha-1B subunit/Amyloid beta A4 precursor protein-binding family A member 1 (Homo sapiens, UniProt Q00975+Q02410); assay type: protein assay
# [21] = biological target: Induced myeloid leukemia cell differentiation protein Mcl-1 (Homo sapiens, UniProt Q07820); assay type: functional
# Chain of Induced myeloid leukemia cell differentiation protein Mcl-1 (Q07820 whole entry): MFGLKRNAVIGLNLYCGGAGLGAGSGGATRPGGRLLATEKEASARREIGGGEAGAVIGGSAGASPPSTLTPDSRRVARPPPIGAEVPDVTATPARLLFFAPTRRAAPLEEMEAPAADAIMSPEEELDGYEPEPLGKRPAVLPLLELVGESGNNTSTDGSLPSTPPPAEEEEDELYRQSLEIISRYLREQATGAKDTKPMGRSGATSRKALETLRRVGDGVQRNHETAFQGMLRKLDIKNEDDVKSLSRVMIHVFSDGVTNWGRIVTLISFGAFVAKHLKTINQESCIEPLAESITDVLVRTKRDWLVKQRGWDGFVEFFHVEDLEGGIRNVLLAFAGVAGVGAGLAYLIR
# [22] = biological target: T6, Voltage-gated N-type calcium channel alpha-1B subunit/Amyloid beta A4 precursor protein-binding family A member 1; assay type: protein assay; remark: listed apart in the source
# [23] = OVCAR8 cell viability loss – plate reader, dry powder samples, PAX8 project, dose response (AID 743197); assay type: functional, cell-based; settings: OVCAR-8
# [24] = fluconazole-exposed Candida albicans growth modulators – fluorescence, retest, confirmation (AID 2467); assay type: functional, cell-based
# [25] = NIH-3T3 fibroblast cytotoxicity, dose response, cytotoxicity control, cell-based, fluorescence, Alamar Blue, secondary assay (AID 2327); assay type: functional;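 also: NIH-3T3 mouse fibroblasts cultured with fluconazole at 8 µg/mL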
structure (smiles),measurement,setting,value
C[C@@H]1CN([C@@H](C)CO)C(=O)Cc2cc(NC(=O)CCC(F)(F)F)ccc2O[C@H]1CN(C)Cc1ccc(Oc2ccccc2)cc1,AC50,[1],41.7 µM (active)
same,AC50,[2],26.4 µM (active)
same,AC50,Paired box protein Pax-8,10.6 µM (active)
Clc1cccc2c3c([nH]c12)CCNC3,IC50,cells [3],> 29.9 µM (inactive)
same,EC50,cells [4],> 29.9 µM (inactive)
same,EC50,[5],1.36 µM (active)
same,IC50,[6],22.1 µM (inactive)
CC(C)CCNC(=O)NC(=O)COC(=O)/C=C/c1cnc2ccccc2n1,EC50,[7],32 µM (not active)
same,EC50,[8],49.5 µM (not active)
same,EC50,[9],35.9 µM (not active)
O=C(c1ccncc1)N1CC[C@H]2[C@H](CO)Nc3ccc(Br)cc3[C@H]21,AC50,[10],18.5 µM (active)
Cc1nnc(NC(=O)CSc2nc(C(C)C)nc3sc(C)c(C)c23)s1,AC50,[11],34.8 µM (active)
CCCCn1nnc(NC(=O)c2ccc(-c3cccc(Cl)c3)o2)n1,IC50,[12],> 100 µM (active)
same,EC50,[13],4.23 µM (active)
Cc1ccc2nsnc2c1S(=O)(=O)Nc1cccc2nsnc12,IC50,[14],6.7 µM (active)
C[C@@H]1CN([C@@H](C)CO)C(=O)c2cc(N(C)C)ccc2O[C@@H]1CN(C)Cc1ccc(C(=O)Nc2ccccc2N)cc1,AC50,[15],3.57 µM (active)
C[C@H](CO)N1C[C@H](C)[C@H](CN(C)S(=O)(=O)c2ccc(F)cc2)Oc2c(NC(=O)CCCCCC(=O)Nc3ccccc3N)cccc2C1=O,AC50,[15],2.58 µM (active)
CC(=O)c1ccc(N2CCN(S(=O)(=O)c3c(C(=O)N4CCCC4)c(C)n(C)c3C)CC2)cc1,AC50,[10],11.6 µM (active)
O=C(Nc1ccc(Cc2ccncc2)cc1)c1cc([N+](=O)[O-])ccc1N1CCOCC1,IC50,Fatty acid synthase [16],1.53 µM (active)
same,IC50,Fatty acid synthase [17],1.24 µM (active)
Nc1sc2c(c1C(=O)NCCc1ccccc1)CCC2,IC50,cells [3],> 29.9 µM (inactive)
same,EC50,cells [4],> 29.9 µM (inactive)
same,EC50,[5],3.36 µM (active)
same,IC50,[6],9.93 µM (active)
CCn1cc(C(=O)NCCC2=CCCCC2)c(=O)c2cc(S(=O)(=O)N(C)C)ccc21,IC50,Fatty acid synthase [16],4.69 µM (active)
same,IC50,Fatty acid synthase [17],2.74 µM (active)
CC(C)(C)N(Cc1ccccc1)C(=O)COC(=O)c1ccc([N+](=O)[O-])o1,IC50,Fatty acid synthase [16],16.2 µM (active)
same,IC50,Fatty acid synthase [17],12.2 µM (active)
C[C@@H]1CN([C@H](C)CO)C(=O)c2cccc(NS(=O)(=O)c3ccc(Cl)cc3)c2O[C@@H]1CN(C)Cc1ccc(C(=O)Nc2ccccc2N)cc1,AC50,[15],9.17 µM (active)
O=C(O)c1cccc(NCc2ccncc2)c1,IC50,[12],> 100 µM (active)
CN(CCc1ccccc1)C(C(=O)c1ccc2c(c1)OCO2)c1nnnn1-c1ccccc1NC(=O)OC(C)(C)C (configuration not stated),IC50,cells [3],> 29.9 µM (inactive)
same,EC50,cells [4],> 29.9 µM (inactive)
same,EC50,[5],0.881 µM (active)
same,IC50,[6],3.26 µM (active)
O=C(Nc1ccc2c(c1)OCCO2)C1CCC1,IC50,[12],> 100 µM (active)
CCOc1cc2[nH]c(=S)n(Cc3ccc(C(=O)NCCCN(CC)CC)cc3)c(=O)c2cc1OCC,AC50,[18],40.1 µM (active)
COc1ccc(C(=O)NCc2ccc(Cl)cc2)cc1S(=O)(=O)N1CCCC1,AC50,[19],4.67 µM (active)
Cc1oc(-c2ccccc2Cl)nc1CS(=O)(=O)CC(=O)NCCc1ccccc1,IC50,cells [3],18.3 µM (inactive)
same,EC50,cells [4],> 29.9 µM (inactive)
same,EC50,[5],2.9 µM (active)
same,IC50,[6],8.19 µM (active)
COCC(=O)N(C)C[C@H]1Oc2cc(C#Cc3cccnc3)ccc2S(=O)(=O)N([C@H](C)CO)C[C@H]1C,AC50,[11],3.31 µM (active)
CCC1=NNc2cccc3c(OC)ccc1c23,IC50,[14],2.15 µM (active)
same,IC50,[20],0.586 µM (active)
same,IC50,[21],8.79 µM (not active)
same,IC50,[22],0.521 µM (active)
C[C@H]1CN([C@@H](C)CO)C(=O)Cc2cc(NC(=O)Nc3ccc(C(F)(F)F)cc3)ccc2O[C@H]1CN(C)Cc1ccc(Cl)c(Cl)c1,AC50,[15],2.92 µM (active)
O=C1CN(S(=O)(=O)Cc2ccccc2)C[C@@H]2[C@@H](c3ccc(C#CC4CC4)cc3)[C@@H](CO)N12,AC50,[1],61 µM (active)
same,AC50,[2],5.98 µM (active)
same,AC50,Paired box protein Pax-8,4.66 µM (active)
same,AC50,[23],53.1 µM (active)
CCOC(=O)CNC(=O)c1sc2ncnc(N3CCc4ccccc4C3)c2c1C,IC50,[14],41.7 µM (not active)
same,EC50,[24],3.42 µM (active)
same,EC50,[25],> 150 µM (inactive)
same,AC50,[10],4.06 µM (active)
COc1ccc2nc(C)cc(Nc3ccc(C)cc3)c2c1,AC50,[18],19.4 µM (active)
C[C@@H]1CN([C@H](C)CO)S(=O)(=O)c2ccc(C#CC3CC3)cc2O[C@@H]1CN(C)C(=O)c1cccc(F)c1,AC50,[11],22.3 µM (active)
